pIC50: −log10 of the molar value. Read-outs that look alike come from different tables or passages of the source.

For assay [1], the system named is Pim-1 stably transfected U2OS human osteogenic sarcoma line. Description: Pim cell assay U2OS (phospho-BAD normalized against total BAD), Pim-1 transfected. The class given is cell-based. Particulars: Homo sapiens, U2OS.
Assay [2] concerns the target full length recombinant Pim-1 (Homo sapiens (Human), UniProt P11309). Description: Pim enzyme assay (HTRF, phosphorylation of biotinylated-BAD (S112) peptide), Pim-1. The class given is biochemical.
In assay [3] the target is full length recombinant Pim-3 (Homo sapiens (Human), UniProt Q86V86). Description: Pim enzyme assay (HTRF, phosphorylation of biotinylated-BAD (S112) peptide), Pim-3. Particulars: Pim-3 enzyme assay; read-out: Pim3 IC50. The class given is biochemical. The essentials:
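Full-length recombinant Pim-3 phosphorylated biotinylated BAD (S112) peptide in 60 mM Hepes pH 7.0, 0.05% BSA, 2 mM DTT for 1 h 30 min at 22 °C. After EDTA stop, HTRF was read with Eu anti-phospho-BAD and streptavidin-APC. IC50 came from 4-parameter logistic fit of percent-of-control values.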
On the technique in general: TR-FRET usually uses a lanthanide donor and a delayed reading to cut background.

Assay [4] relates to Pim-2 stably transfected U2OS human osteogenic sarcoma line. In words: Pim cell assay U2OS (phospho-BAD normalized against total BAD), Pim-2 transfected. Particulars: Homo sapiens; U2OS cells, Pim-2 transfected; read-out: U2OS Pim2_Cell_IC50. The class given is cell-based.
For assay [5], the target named is full length recombinant Pim-2 (Homo sapiens (Human), UniProt Q9P1W9). In words: Pim enzyme assay (HTRF, phosphorylation of biotinylated-BAD (S112) peptide), Pim-2. The class given is biochemical. The settings on record: Pim-2 enzyme assay; read-out: Pim2_IC50.
Chain of full length recombinant Pim-2 (Q9P1W9 whole entry): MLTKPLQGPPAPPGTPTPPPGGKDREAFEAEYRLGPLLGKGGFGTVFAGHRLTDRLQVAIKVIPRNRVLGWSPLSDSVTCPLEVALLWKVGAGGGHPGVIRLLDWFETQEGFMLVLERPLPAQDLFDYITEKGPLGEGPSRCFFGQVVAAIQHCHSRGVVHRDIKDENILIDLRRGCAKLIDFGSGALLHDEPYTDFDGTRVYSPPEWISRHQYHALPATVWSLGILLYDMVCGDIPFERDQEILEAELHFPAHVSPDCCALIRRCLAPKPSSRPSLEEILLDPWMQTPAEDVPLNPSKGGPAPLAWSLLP
[6] abbreviates: read-out: U2OS Pim1_Cell_IC50, U2OS cells, Pim-1 transfected.
The mark [7] stands for this setting: Pim-1 enzyme assay, read-out: Pim_1_IC50.

Chain of full length recombinant Pim-1 (P11309 whole entry): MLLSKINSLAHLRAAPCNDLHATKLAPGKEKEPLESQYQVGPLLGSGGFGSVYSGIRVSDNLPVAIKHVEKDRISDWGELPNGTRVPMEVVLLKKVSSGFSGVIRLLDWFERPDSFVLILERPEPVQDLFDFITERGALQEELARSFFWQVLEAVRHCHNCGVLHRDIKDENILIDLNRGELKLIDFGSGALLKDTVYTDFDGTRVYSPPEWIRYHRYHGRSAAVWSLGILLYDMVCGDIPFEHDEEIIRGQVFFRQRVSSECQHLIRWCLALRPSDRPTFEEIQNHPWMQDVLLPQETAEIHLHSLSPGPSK

In the case of `CC(C)Nc1cncc(-c2c[nH]c3ccc(-c4nnc(N)o4)cc23)n1` [Example 101, 6-(5-(5-amino-1,3,4-oxadiazol-2-yl)-1H-indol-3-yl)-N-(1-methylethyl)-2-pyrazinamine], the pIC50 was 7.18 in assay [1] (setting [6]); 8.82 in assay [2] (setting [7]); 9.05 in assay [3]; 6.09 in assay [4]; 8.40 in assay [5].

For the compound `CC(C)Nc1ccnc(-c2c[nH]c3ccc(-c4nnc(N)o4)cc23)n1` [Example 103, 2-(5-(5-amino-1,3,4-oxadiazol-2-yl)-1H-indol-3-yl)-N-(1-methylethyl)-4-pyrimidinamine], the pIC50 in assay [1] (read-out: U2OS Pim1_Cell_IC50) is 6.13; in assay [2] (setting [7]) it was 8.16; in assay [3], 8.78; in assay [4] it was 5.91; in assay [5], 8.65.

Take `Nc1nnc(-c2ccc3[nH]cc(-c4nccc(Oc5ccccc5)n4)c3c2)o1` [Example 106, 5-(3-(4-phenoxy-2-pyrimidinyl)-1H-indol-5-yl)-1,3,4-oxadiazol-2-amine]: the pIC50 in assay [1] (read-out: U2OS Pim1_Cell_IC50) was 6.81; in assay [2] (setting [7]), 7.82; in assay [3] it was 8.24; in assay [4], 5.93; in assay [5], 8.19.

On to `Nc1nnc(-c2ccc3[nH]cc(-c4nccc(Nc5ccccc5)n4)c3c2)o1` [Example 108, 2-(5-(5-amino-1,3,4-oxadiazol-2-yl)-1H-indol-3-yl)-N-phenyl-4-pyrimidinamine], for which the pIC50 in assay [1] (read-out: U2OS Pim1_Cell_IC50) is 6.15; in assay [2] (setting [7]), 8.03; in assay [3] it was 8.68; in assay [4], 5.85; in assay [5], 8.51.

Consider `Nc1nnc(-c2ccc3[nH]cc(-c4cncc(-c5ccccc5)n4)c3c2)o1` [Example 115, 5-(3-(6-phenyl-2-pyrazinyl)-1H-indol-5-yl)-1,3,4-oxadiazol-2-amine], for which the pIC50 was 6.98 in assay [1] (read-out: U2OS Pim1_Cell_IC50); 8.03 in assay [2] (setting [7]); 8.27 in assay [3]; less than 4.50 in assay [4]; 7.85 in assay [5].

On to `Nc1nnc(-c2ccc3[nH]cc(-c4cncc(-c5ccccc5F)n4)c3c2)o1` [Example 116, 5-(3-(6-(2-fluorophenyl)-2-pyrazinyl)-1H-indol-5-yl)-1,3,4-oxadiazol-2-amine], for which the pIC50 was 6.65 in assay [1] (setting [6]); 7.82 in assay [2] (setting [7]); 8.11 in assay [3]; less than 4.50 in assay [4]; 7.71 in assay [5].

In the case of `Nc1nnc(-c2ccc3[nH]cc(-c4nccc(-c5ccccc5Cl)n4)c3c2)o1` [Example 118, 5-(3-(4-(2-chlorophenyl)-2-pyrimidinyl)-1H-indol-5-yl)-1,3,4-oxadiazol-2-amine], the pIC50 in assay [1] (read-out: U2OS Pim1_Cell_IC50) is 6.66; in assay [2] (setting [7]) it was 7.78; in assay [3], 7.80; in assay [4] it was less than 4.50; in assay [5] it was 7.72.

For `Nc1nnc(-c2ccc3[nH]cc(-c4cncc(-c5cccc(F)c5)n4)c3c2)o1` [Example 119, 5-(3-(6-(3-fluorophenyl)-2-pyrazinyl)-1H-indol-5-yl)-1,3,4-oxadiazol-2-amine], the pIC50 is 7.07 in assay [1] (read-out: U2OS Pim1_Cell_IC50); 8.22 in assay [2] (setting [7]); 8.67 in assay [3]; less than 4.50 in assay [4]; 7.97 in assay [5].

Take `Nc1nnc(-c2ccc3[nH]cc(-c4cncc(-c5cccc(Cl)c5)n4)c3c2)o1` [Example 120, 5-(3-(6-(3-chlorophenyl)-2-pyrazinyl)-1H-indol-5-yl)-1,3,4-oxadiazol-2-amine]: the pIC50 in assay [1] (read-out: U2OS Pim1_Cell_IC50) was 6.62; in assay [2] (setting [7]), 8.03; in assay [3], 8.37; in assay [4] it was less than 4.50; in assay [5], 7.64.

In the case of `Cn1cc(-c2cncc(-c3c[nH]c4ccc(-c5nnc(N)o5)cc34)n2)cn1` [Example 121, 5-(3-(6-(1-methyl-1H-pyrazol-4-yl)-2-pyrazinyl)-1H-indol-5-yl)-1,3,4-oxadiazol-2-amine], the pIC50 in assay [1] (read-out: U2OS Pim1_Cell_IC50) was 5.50; in assay [2] (setting [7]), 7.72; in assay [3], 8.26; in assay [4] it was less than 4.50; in assay [5], 7.46.

In the case of `Nc1nnc(-c2ccc3[nH]cc(-c4nccc(-c5ccccc5)n4)c3c2)o1` [Example 122, 5-(3-(4-phenyl-2-pyrimidinyl)-1H-indol-5-yl)-1,3,4-oxadiazol-2-amine], the pIC50 in assay [1] (setting [6]) was 6.88; in assay [2] (setting [7]) it was 8.16; in assay [3], 8.62; in assay [4], 6.08; in assay [5], 8.41.

As to `CC(C)Oc1ccc(F)c(-c2c[nH]c3ccc(-c4nnc(N)o4)nc23)c1` [Example 125, 5-(3-(2-fluoro-5-(1-methylethoxy)phenyl)-1H-pyrrolo[3,2-b]pyridin-5-yl)-1,3,4-oxadiazol-2-amine], the pIC50 in assay [1] (setting [6]) is 6.96; in assay [2] (setting [7]) it was 7.64; in assay [3], 8.11; in assay [4], 5.35; in assay [5], 7.24.

On to `CNc1nnc(-c2ccc3[nH]cc(-c4nccc(N5CCC[C@H](N)C5)n4)c3c2)s1` [Example 128, (3S)-1-(2-(5-(5-(methylamino)-1,3,4-thiadiazol-2-yl)-1H-indol-3-yl)-4-pyrimidinyl)-3-piperidinamine], for which the pIC50 is 4.86 in assay [1] (setting [6]); 8.54 in assay [2] (setting [7]); 9.13 in assay [3]; 4.80 in assay [4]; 8.82 in assay [5].

With `CNc1nnc(-c2ccc3[nH]cc(-c4ccnc(N5CCOCC5)n4)c3c2)s1` [Example 129, N-methyl-5-(3-(2-(4-morpholinyl)-4-pyrimidinyl)-1H-indol-5-yl)-1,3,4-thiadiazol-2-amine], the pIC50 was 6.01 in assay [1] (setting [6]); 7.50 in assay [2] (setting [7]); 7.91 in assay [3]; less than 4.50 in assay [4]; 7.08 in assay [5].

For `Nc1nnc(-c2ccc3[nH]cc(-c4cccc(-c5ccccc5)n4)c3c2)s1` [Example 130, 5-(3-(6-phenyl-2-pyridinyl)-1H-indol-5-yl)-1,3,4-thiadiazol-2-amine], the pIC50 is 5.10 in assay [1] (read-out: U2OS Pim1_Cell_IC50); 7.40 in assay [2] (setting [7]); 7.69 in assay [3]; less than 4.50 in assay [4]; 7.41 in assay [5].

As for `CNc1nnc(-c2ccc3[nH]cc(-c4nccc(N5CCN(C)CC5)n4)c3c2)s1` [Example 132, N-methyl-5-(3-(4-(4-methyl-1-piperazinyl)-2-pyrimidinyl)-1H-indol-5-yl)-1,3,4-thiadiazol-2-amine], the pIC50 is 5.83 in assay [1] (read-out: U2OS Pim1_Cell_IC50); 7.96 in assay [2] (setting [7]); 8.40 in assay [3]; 5.16 in assay [4]; 7.47 in assay [5].

Turning to `Nc1nnc(-c2ccc3[nH]cc(-c4ccnc(N5CCOCC5)n4)c3c2)s1` [Example 133, 5-(3-(2-(4-morpholinyl)-4-pyrimidinyl)-1H-indol-5-yl)-1,3,4-thiadiazol-2-amine], the pIC50 in assay [1] (setting [6]) is 6.27; in assay [2] (setting [7]) it was 7.87; in assay [3], 8.40; in assay [4] it was 5.09; in assay [5], 7.71.

In the case of `CNc1nnc(-c2ccc3[nH]cc(-c4nccc(N5CCOCC5)n4)c3c2)s1` [Example 134, N-methyl-5-(3-(4-(4-morpholinyl)-2-pyrimidinyl)-1H-indol-5-yl)-1,3,4-thiadiazol-2-amine], the pIC50 in assay [1] (setting [6]) is 5.84; in assay [2] (setting [7]) it was 7.42; in assay [3], 7.91; in assay [4] it was 5.21; in assay [5], 7.79.

`CNc1nnc(-c2ccc3[nH]cc(-c4nccc(N5CCCCC5)n4)c3c2)s1` [Example 135, N-methyl-5-(3-(4-(1-piperidinyl)-2-pyrimidinyl)-1H-indol-5-yl)-1,3,4-thiadiazol-2-amine]: the pIC50 in assay [1] (setting [6]) was 5.07; in assay [2] (setting [7]), 7.07; in assay [3], 7.49; in assay [4], less than 4.50; in assay [5], 7.22.

As to `Nc1nnc(-c2ccc3[nH]cc(-c4ccccc4F)c3c2)s1` [Example 136, 5-(3-(2-fluorophenyl)-1H-indol-5-yl)-1,3,4-thiadiazol-2-amine], the pIC50 in assay [1] (setting [6]) is 5.47; in assay [2] (setting [7]), 7.17; in assay [3], 7.51; in assay [4] it was less than 4.50; in assay [5] it was 7.22.

For `Nc1nnc(-c2ccc3[nH]cc(-c4ccc5nccnc5c4)c3c2)s1` [Example 151, 5-(3-(6-quinoxalinyl)-1H-indol-5-yl)-1,3,4-thiadiazol-2-amine], the pIC50 is 6.03 in assay [1] (read-out: U2OS Pim1_Cell_IC50); 6.99 in assay [2] (setting [7]); 7.76 in assay [3]; less than 4.50 in assay [4]; 6.84 in assay [5].

Regarding `CC1CCCCN1c1cncc(-c2c[nH]c3ccc(-c4nnc(N)s4)cc23)n1` (stereo not shown) [Example 153, 5-(3-(6-(2-methyl-1-piperidinyl)-2-pyrazinyl)-1H-indol-5-yl)-1,3,4-thiadiazol-2-amine], the pIC50 in assay [1] (read-out: U2OS Pim1_Cell_IC50) was 7.28; in assay [2] it was 8.75; in assay [3], 8.77; in assay [4], 5.78; in assay [5] it was 8.01.

For the compound `CCN(CC)c1cncc(-c2c[nH]c3ccc(-c4nnc(N)s4)cc23)n1` [Example 154, 6-(5-(5-amino-1,3,4-thiadiazol-2-yl)-1H-indol-3-yl)-N,N-diethyl-2-pyrazinamine], the pIC50 in assay [1] (setting [6]) is 7.36; in assay [2] (setting [7]), 8.70; in assay [3], 8.84; in assay [4] it was 5.64; in assay [5], 7.70.

The values are drawn from US9321756B2, “Azole compounds as PIM inhibitors” (priority 2011, dated 2016).
